Data published in PubChem BioAssay AID328 (DTP/NCI, 2004).
Values joined by “and” are separate entries in the source; they are usually repeats but may differ in a detail not shown here. Identical values can stand only once. Toxic doses and inconclusive results are not listed. Rule for the calls: active = survival T/C of 150% or more; inactive = T/C below 125% in these data.

System: BDF1 mice, P388 leukemia ip, median survival T/C
Test: NCI In Vivo Anticancer Drug Screen. Data for tumor model P388 Leukemia (intraperitoneal) in B6D2F1 (BDF1) mice
Settings: endpoint: median survival time, higher = longer survival
Outline: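 Transplantable tumour in mice; compound vs vehicle dosing; survival scored; ratio of treated to control reported.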

[1] = dose: 6.0 mg/kg/injection, schedule: Q01DX009 (ip), vehicle: saline with Tween-80
[2] = dose: 18.0 mg/kg/injection, schedule: Q04DX003 (ip), vehicle: saline with Tween-80
[3] = dose: 20.0 mg/kg/injection, schedule: Q01DX009 (ip), vehicle: saline with Tween-80
[4] = dose: 20.0 mg/kg/injection, schedule: Q04DX003 (ip), vehicle: saline with Tween-80
[5] = dose: 26.0 mg/kg/injection, schedule: Q04DX003 (ip), vehicle: saline with Tween-80
[6] = dose: 40.0 mg/kg/injection, schedule: Q04DX003 (ip), vehicle: saline with Tween-80
[7] = dose: 37.5 mg/kg/injection, schedule: Q01DX009 (ip), vehicle: saline with Tween-80
[8] = dose: 75.0 mg/kg/injection, schedule: Q01DX009 (ip), vehicle: saline with Tween-80
[9] = dose: 150.0 mg/kg/injection, schedule: Q01DX009 (ip), vehicle: saline with Tween-80
[10] = dose: 50.0 mg/kg/injection, schedule: Q01DX009 (ip), vehicle: other
[11] = dose: 50.0 mg/kg/injection, schedule: Q01DX009 (ip), vehicle: saline with Tween-80
[12] = dose: 100.0 mg/kg/injection, schedule: Q04DX003 (ip), vehicle: saline with Tween-80
[13] = dose: 200.0 mg/kg/injection, schedule: Q01DX009 (ip), vehicle: saline with Tween-80
[14] = dose: 200.0 mg/kg/injection, schedule: Q04DX003 (ip), vehicle: saline with Tween-80
[15] = dose: 400.0 mg/kg/injection, schedule: Q04DX003 (ip), vehicle: saline with Tween-80
[16] = dose: 100.0 mg/kg/injection, schedule: Q01DX009 (ip), vehicle: saline with Tween-80

Measured: T/C

CNC(=N)c1ccc(NC(=N)c2ccc(NC(=N)c3ccc(NC(=N)c4ccc(C(=N)NC)cc4)cc3)cc2)cc1
active: dose: 13.0 mg/kg/injection, schedule: Q01DX009 (ip), vehicle: saline with Tween-80 166 % of control and 175 % of control | [3] 157 % of control and 165 % of control | dose: 30.0 mg/kg/injection, schedule: Q01DX009 (ip), vehicle: saline with Tween-80 214 % of control | [6] 154 % of control
inactive: [1] 120 % of control | [2] 100 % of control | [4] 109 % of control | [5] 116 % of control | dose: 80.0 mg/kg/injection, schedule: Q04DX003 (ip), vehicle: saline with Tween-80 90 % of control

CO[C@H]1Nc2c(ccc(C)c2O)C(=O)N2C=C(/C=C/C(N)=O)C[C@@H]12
active: dose: 0.02 mg/kg/injection, schedule: Q01DX010 (ip), vehicle: carboxymethylcellulose (CMC) 230 % of control | dose: 0.05 mg/kg/injection, schedule: Q01DX010 (ip), vehicle: carboxymethylcellulose (CMC) 230 % of control | dose: 0.08 mg/kg/injection, schedule: Q01DX009 (ip), vehicle: Klucel (hydroxypropylcellulose) (HPC) 242 % of control | dose: 0.08 mg/kg/injection, schedule: Q01DX009 (ip), vehicle: saline 150 % of control | dose: 0.1 mg/kg/injection, schedule: Q01DX010 (ip), vehicle: carboxymethylcellulose (CMC) 210 % of control | dose: 0.12 mg/kg/injection, schedule: Q01DX009 (ip), vehicle: saline with Tween-80 168 % of control | dose: 0.18 mg/kg/injection, schedule: Q01DX009 (ip), vehicle: Klucel (hydroxypropylcellulose) (HPC) 238 % of control | dose: 0.2 mg/kg/injection, schedule: Q01DX010 (ip), vehicle: carboxymethylcellulose (CMC) 185 % of control | dose: 151.0 micrograms/kg/injection, schedule: Q04DX003 (ip), vehicle: saline + alcohol 186 % of control | dose: 216.0 micrograms/kg/injection, schedule: Q04DX003 (ip), vehicle: saline + alcohol 177 % of control and 189 % of control | dose: 252.0 micrograms/kg/injection, schedule: Q04DX003 (ip), vehicle: saline + alcohol 208 % of control | dose: 360.0 micrograms/kg/injection, schedule: Q04DX003 (ip), vehicle: saline + alcohol 183 % of control and 196 % of control | dose: 420.0 micrograms/kg/injection, schedule: Q04DX003 (ip), vehicle: saline + alcohol 215 % of control
inactive: dose: 0.25 mg/kg/injection, schedule: Q01DX010 (ip), vehicle: saline 90 % of control | dose: 600.0 micrograms/kg/injection, schedule: Q04DX003 (ip), vehicle: saline + alcohol 94 % of control and 112 % of control

C=CCOCCN1CCN(CCCN2c3ccccc3Sc3ccc(C(F)(F)F)cc32)CC1
inactive: dose: 5.0 mg/kg/injection, schedule: Q04DX003 (ip), vehicle: saline 104 % of control | dose: 10.0 mg/kg/injection, schedule: Q04DX003 (ip), vehicle: saline 121 % of control

c1cc2c(c(NC3=NCCO3)c1)CCCC2
inactive: [7] 113 % of control | [8] 118 % of control | [9] 120 % of control

C=C1C(=O)OC2/C=C(\C)C3(O)C=CC(C)(CC(OC(=O)C(C)C)C12)O3 (stereo unspecified)
inactive: dose: 10.0 mg/kg/injection, schedule: Q01DX009 (ip), vehicle: saline 103 % of control | dose: 40.0 mg/kg/injection, schedule: Q01DX009 (ip), vehicle: saline 100 % of control
active: dose: 12.5 mg/kg/injection, schedule: Q01DX009 (ip), vehicle: other 161 % of control | dose: 25.0 mg/kg/injection, schedule: Q01DX009 (ip), vehicle: other 155 % of control | [10] 161 % of control

CCN(CC)CCCC(C)NC(=O)c1ccc(Cl)nc1 (stereo unspecified)
inactive: [7] 107 % of control | [11] 113 % of control | dose: 50.0 mg/kg/injection, schedule: Q04DX003 (ip), vehicle: saline with Tween-80 103 % of control | [8] 96 % of control | [12] 107 % of control | [9] 117 % of control | [13] 97 % of control | [14] 110 % of control

CCOC(=O)c1cc(N)c(N2CCCC2)cc1Cl
inactive: [12] 100 % of control | dose: 133.0 mg/kg/injection, schedule: Q04DX003 (ip), vehicle: saline with Tween-80 89 % of control | [14] 105 % of control | dose: 300.0 mg/kg/injection, schedule: Q04DX003 (ip), vehicle: saline with Tween-80 94 % of control | [15] 100 % of control

CSc1ccccc1C(C)(C)O
inactive: [10] 100 % of control | dose: 100.0 mg/kg/injection, schedule: Q01DX009 (ip), vehicle: other 104 % of control | dose: 200.0 mg/kg/injection, schedule: Q01DX009 (ip), vehicle: other 113 % of control

Nc1cc(C(=O)Nc2ccc(CCNC3=NCCN3)cc2)ccc1C(=O)Nc1ccc(CCNC2=NCCN2)cc1
inactive: dose: 2.6 mg/kg/injection, schedule: Q01DX009 (ip), vehicle: saline with Tween-80 123 % of control | dose: 5.0 mg/kg/injection, schedule: Q04DX003 (ip), vehicle: saline with Tween-80 109 % of control and 113 % of control | dose: 8.0 mg/kg/injection, schedule: Q04DX003 (ip), vehicle: saline with Tween-80 118 % of control | dose: 10.0 mg/kg/injection, schedule: Q04DX003 (ip), vehicle: saline with Tween-80 109 % of control | dose: 12.0 mg/kg/injection, schedule: Q04DX003 (ip), vehicle: saline with Tween-80 118 % of control
active: [1] 157 % of control | dose: 6.7 mg/kg/injection, schedule: Q01DX009 (ip), vehicle: saline with Tween-80 157 % of control | dose: 10.0 mg/kg/injection, schedule: Q01DX009 (ip), vehicle: saline with Tween-80 192 % of control and 215 % of control | dose: 15.0 mg/kg/injection, schedule: Q01DX009 (ip), vehicle: saline with Tween-80 230 % of control | [2] 150 % of control and 163 % of control | [3] 230 % of control | [4] 163 % of control | [5] 150 % of control and 177 % of control | [6] 250 % of control and 200 % of control | dose: 60.0 mg/kg/injection, schedule: Q04DX003 (ip), vehicle: saline with Tween-80 162 % of control

NC(=O)C1(N2CCCCC2)CCN(CCCC(=O)c2ccc(F)cc2)CC1
inactive: dose: 37.5 mg/kg/injection, schedule: Q01DX009 (ip), vehicle: Klucel (hydroxypropylcellulose) (HPC) 107 % of control | dose: 150.0 mg/kg/injection, schedule: Q01DX009 (ip), vehicle: Klucel (hydroxypropylcellulose) (HPC) 117 % of control

CC(C)COP(=O)(O)OCC(C)C.[Al]
inactive: [11] 92 % of control | [16] 94 % of control | [13] 94 % of control

O=C1C=C(Nc2ccccc2)CCC1
inactive: dose: 50.0 mg/kg/injection, schedule: Q01DX009 (ip), vehicle: saline 99 % of control | dose: 100.0 mg/kg/injection, schedule: Q01DX009 (ip), vehicle: saline 100 % of control | dose: 200.0 mg/kg/injection, schedule: Q01DX009 (ip), vehicle: saline 103 % of control

c1coc(CNc2ncnc3nc[nH]c23)c1
inactive: [16] 95 % of control | [12] 91 % of control | [13] 86 % of control | [14] 95 % of control | dose: 400.0 mg/kg/injection, schedule: Q01DX009 (ip), vehicle: saline with Tween-80 100 % of control | [15] 86 % of control

CCN1C(=O)c2ccccc2C1=O
inactive: dose: 50.0 mg/kg/injection, schedule: Q04DX003 (ip), vehicle: Klucel (hydroxypropylcellulose) (HPC) 104 % of control | dose: 100.0 mg/kg/injection, schedule: Q01DX001 (ip), vehicle: Klucel (hydroxypropylcellulose) (HPC) 104 % of control | dose: 100.0 mg/kg/injection, schedule: Q04DX003 (ip), vehicle: Klucel (hydroxypropylcellulose) (HPC) 118 % of control | dose: 200.0 mg/kg/injection, schedule: Q01DX001 (ip), vehicle: Klucel (hydroxypropylcellulose) (HPC) 108 % of control | dose: 200.0 mg/kg/injection, schedule: Q04DX003 (ip), vehicle: Klucel (hydroxypropylcellulose) (HPC) 100 % of control | dose: 400.0 mg/kg/injection, schedule: Q01DX001 (ip), vehicle: Klucel (hydroxypropylcellulose) (HPC) 104 % of control

S=c1nc2[nH]c3ccccc3c2n[nH]1
inactive: dose: 6.25 mg/kg/injection, schedule: Q01DX009 (ip), vehicle: saline with Tween-80 100 % of control | dose: 12.5 mg/kg/injection, schedule: Q01DX009 (ip), vehicle: saline with Tween-80 97 % of control | dose: 25.0 mg/kg/injection, schedule: Q01DX009 (ip), vehicle: saline with Tween-80 88 % of control | [11] 96 % of control | [16] 98 % of control | [13] 96 % of control
